Reference: the supplement of paper PMC11451515

Experiments:
Conditions in all cases: 48 h
[1] = tested on: SEM cells; assay: AUC of viability dose-response curve (% viability x log10 dose units); higher = less sensitive
In short: (§1)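 Area under the curve was integrated by trapezoidal rule from a log-logistic fit of normalised viability, with curves exceeding full viability scaled and quality-control failures removed. The fit had four parameters over log10 doses. Viability came from CellTiter-Glo One luminescence, normalised per plate to DMSO and cell-free wells, after leukemia cells adapted to each medium (500 or 1000 cells/well, 1536-well plates) were exposed to library compounds in DMSO for 48 h at 37°C. The 11 threefold doses ran from 47 μM to 0.79 nM.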

[2] = tested on: NOMO1; assay: as above
In short: as §1

[3] = tested on: P12-Ichikawa; assay: as above
In short: as §1

[4] = tested on: SEM cells; assay: cell viability relative to DMSO control; higher = less cytotoxic
In short: (§2)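 NOMO1 or SEM cells were plated at 500 cells/well and P12-Ichikawa cells at 1000 cells/well in 1536-well plates (5 μl), after each leukemia line had been adapted for at least four passages in each medium. Pin dosing delivered library compounds in DMSO at 11 threefold concentrations, 47 μM to 0.79 nM. CellTiter-Glo One luminescence was read after 48 h at 37°C. Viability is reported as a per-plate percentage of DMSO wells, with cell-free wells as background.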

[5] = tested on: NOMO1; assay: as above
In short: as §2

[6] = tested on: P12-Ichikawa; assay: as above
In short: as §2

F\C1=C\NC(=O)NC1=O
AUC of viability dose-response curve
Conditions	[1]	[2]	[3]
HPLM + 10% dialyzed FBS	407	414	405
RPMI 5 mM glucose + 10% FBS	410	437	435
RPMI 5 mM glucose + 10% dialyzed FBS	412	422	413

COc1nc(N)nc2c1ncn2[C@@H]1O[C@H](CO)[C@@H](O)[C@@H]1O
AUC of viability dose-response curve
Conditions	[1]	[2]	[3]
HPLM + 10% dialyzed FBS	472	458	455
RPMI 5 mM glucose + 10% FBS	449	444	462
RPMI 5 mM glucose + 10% dialyzed FBS	463	448	456

CN1CCN(c2ncc(-c3cc(Cl)cc(Cl)c3Cl)c(N)n2)CC1
cell viability [%], [4]
Conditions	RPMI 5 mM glucose + 10% FBS	RPMI 5 mM glucose + 10% dialyzed FBS
0.000781 µM	111	106
0.00234 µM	117	118
0.00702 µM	133	117
0.0211 µM	137	133
0.0632 µM	135	139
0.19 µM	135	135
0.569 µM	126	150
1.71 µM	135	141
5.12 µM	155	144
15.4 µM	138	141
46.1 µM	132	132

AUC of viability dose-response curve
Conditions	HPLM + 10% dialyzed FBS	RPMI 5 mM glucose + 10% FBS	RPMI 5 mM glucose + 10% dialyzed FBS
[1]	467	459	450
[2]	337	305	341

COC1=CC(=CC(=C1)C2=CC=C3N=CC\4=C(N(C(=O)\C=C4)C5=CC(=C(C=C5)N6CCNCC6)C(F)(F)F)C3=C2)OC
AUC of viability dose-response curve
Conditions	[1]	[2]	[3]
HPLM + 10% dialyzed FBS	406	387	440
RPMI 5 mM glucose + 10% FBS	414	456	407
RPMI 5 mM glucose + 10% dialyzed FBS	413	436	412

CN(C)CC(=O)N1CCC(CC1)C2=CC=C(NC(=O)C3=NC(=C[NH]3)C#N)C(=C2)\C4=C\CCCC4
AUC of viability dose-response curve
Conditions	[1]	[2]	[3]
HPLM + 10% dialyzed FBS	359	458	467
RPMI 5 mM glucose + 10% FBS	358	454	463
RPMI 5 mM glucose + 10% dialyzed FBS	348	456	443

O=C1c2ccccc2-c2n[nH]c3cccc1c23
cell viability [%]
Conditions	[4]	[5]	[6]
HPLM + 10% dialyzed FBS, 0.000781 µM	82.9	109	96.5
HPLM + 10% dialyzed FBS, 0.00234 µM	101	131	102
HPLM + 10% dialyzed FBS, 0.00702 µM	121	103	107
HPLM + 10% dialyzed FBS, 0.0211 µM	97.9	111	111
HPLM + 10% dialyzed FBS, 0.0632 µM	99	123	107
HPLM + 10% dialyzed FBS, 0.19 µM	104	120	108
HPLM + 10% dialyzed FBS, 0.569 µM	5.3	92.5	81
HPLM + 10% dialyzed FBS, 1.71 µM	102	122	106
HPLM + 10% dialyzed FBS, 5.12 µM	112	102	80
HPLM + 10% dialyzed FBS, 15.4 µM	76.8	53.6	46.6
HPLM + 10% dialyzed FBS, 46.1 µM	37.4	28.3	12.8
RPMI 5 mM glucose + 10% FBS, 0.000781 µM	82	90.6	106
RPMI 5 mM glucose + 10% FBS, 0.00234 µM	107	105	109
RPMI 5 mM glucose + 10% FBS, 0.00702 µM	97.3	110	107
RPMI 5 mM glucose + 10% FBS, 0.0211 µM	103	113	113
RPMI 5 mM glucose + 10% FBS, 0.0632 µM	106	102	109
RPMI 5 mM glucose + 10% FBS, 0.19 µM	107	127	111
RPMI 5 mM glucose + 10% FBS, 0.569 µM	6.25	113	84.6
RPMI 5 mM glucose + 10% FBS, 1.71 µM	98.2	107	106
RPMI 5 mM glucose + 10% FBS, 5.12 µM	90.5	117	68.4
RPMI 5 mM glucose + 10% FBS, 15.4 µM	63.6	53.7	48.9
RPMI 5 mM glucose + 10% FBS, 46.1 µM	21.2	18.2	10.7
RPMI 5 mM glucose + 10% dialyzed FBS, 0.000781 µM	86.6	101	98.1
RPMI 5 mM glucose + 10% dialyzed FBS, 0.00234 µM	93.9	107	97.2
RPMI 5 mM glucose + 10% dialyzed FBS, 0.00702 µM	99.1	98.3	98.5
RPMI 5 mM glucose + 10% dialyzed FBS, 0.0211 µM	105	114	108
RPMI 5 mM glucose + 10% dialyzed FBS, 0.0632 µM	91	116	112
RPMI 5 mM glucose + 10% dialyzed FBS, 0.19 µM	116	115	100
RPMI 5 mM glucose + 10% dialyzed FBS, 0.569 µM	5.93	120	87.6
RPMI 5 mM glucose + 10% dialyzed FBS, 1.71 µM	92.9	108	101
RPMI 5 mM glucose + 10% dialyzed FBS, 5.12 µM	103	94.2	78
RPMI 5 mM glucose + 10% dialyzed FBS, 15.4 µM	67.4	94.9	62.3
RPMI 5 mM glucose + 10% dialyzed FBS, 46.1 µM	26.7	23.9	16.4

AUC of viability dose-response curve
Conditions	HPLM + 10% dialyzed FBS	RPMI 5 mM glucose + 10% FBS	RPMI 5 mM glucose + 10% dialyzed FBS
[2]	429	433	449
[3]	416	401	422

CC(=O)OCC(=O)[C@@]1(O)CC[C@H]2[C@@H]3CCC/4=C/C(=O)/C=C\[C@]4(C)[C@H]3[C@@H](O)C[C@]12C
cell viability [%]
Conditions	[4]	[5]	[6]
HPLM + 10% dialyzed FBS, 0.000781 µM	117	–	120
HPLM + 10% dialyzed FBS, 0.00234 µM	106	–	128
HPLM + 10% dialyzed FBS, 0.00702 µM	104	–	123
HPLM + 10% dialyzed FBS, 0.0211 µM	112	–	126
HPLM + 10% dialyzed FBS, 0.0632 µM	103	–	102
HPLM + 10% dialyzed FBS, 0.19 µM	78.8	–	85.3
HPLM + 10% dialyzed FBS, 0.569 µM	69.3	–	95.7
HPLM + 10% dialyzed FBS, 1.71 µM	52.7	–	72.1
HPLM + 10% dialyzed FBS, 5.12 µM	48.2	–	66.4
HPLM + 10% dialyzed FBS, 15.4 µM	88	–	118
HPLM + 10% dialyzed FBS, 46.1 µM	90.5	–	109
RPMI 5 mM glucose + 10% FBS, 0.000781 µM	121	131	–
RPMI 5 mM glucose + 10% FBS, 0.00234 µM	124	119	–
RPMI 5 mM glucose + 10% FBS, 0.00702 µM	130	121	–
RPMI 5 mM glucose + 10% FBS, 0.0211 µM	124	119	–
RPMI 5 mM glucose + 10% FBS, 0.0632 µM	122	114	–
RPMI 5 mM glucose + 10% FBS, 0.19 µM	99.3	119	–
RPMI 5 mM glucose + 10% FBS, 0.569 µM	110	120	–
RPMI 5 mM glucose + 10% FBS, 1.71 µM	81.4	112	–
RPMI 5 mM glucose + 10% FBS, 5.12 µM	60.4	119	–
RPMI 5 mM glucose + 10% FBS, 15.4 µM	128	106	–
RPMI 5 mM glucose + 10% FBS, 46.1 µM	121	115	–
RPMI 5 mM glucose + 10% dialyzed FBS, 0.000781 µM	–	–	117
RPMI 5 mM glucose + 10% dialyzed FBS, 0.00234 µM	–	–	118
RPMI 5 mM glucose + 10% dialyzed FBS, 0.00702 µM	–	–	121
RPMI 5 mM glucose + 10% dialyzed FBS, 0.0211 µM	–	–	130
RPMI 5 mM glucose + 10% dialyzed FBS, 0.0632 µM	–	–	92.5
RPMI 5 mM glucose + 10% dialyzed FBS, 0.19 µM	–	–	77.4
RPMI 5 mM glucose + 10% dialyzed FBS, 0.569 µM	–	–	100
RPMI 5 mM glucose + 10% dialyzed FBS, 1.71 µM	–	–	50.8
RPMI 5 mM glucose + 10% dialyzed FBS, 5.12 µM	–	–	43.8
RPMI 5 mM glucose + 10% dialyzed FBS, 15.4 µM	–	–	109
RPMI 5 mM glucose + 10% dialyzed FBS, 46.1 µM	–	–	102

AUC of viability dose-response curve
Conditions	HPLM + 10% dialyzed FBS	RPMI 5 mM glucose + 10% FBS	RPMI 5 mM glucose + 10% dialyzed FBS
[1]	383	425	428
[2]	439	450	472
